Experimental data from patent US11008572B2, “Methods and compositions for modulating splicing” (SKYHAWK THERAPEUTICS, INC., priority 2017, dated 2021).

Experiments:
[1] = test system: A375 xenografts; test: A375 xenograft tumor growth inhibition; format: in vivo; conditions: immunocompromised nude mice with pre-existing A375 xenografts
Description: Studies were performed to assess the effects of in vivo SMSM treatment on glioblastoma, breast, pancreatic, prostate, melanoma, lymphoma and Ewing sarcoma tumors. Studies were also performed to assess the effects of in vivo SMSM treatment on mRNA levels. Immunocompromised nude mice with pre-existing glioblastoma, breast, pancreatic, prostate, melanoma, lymphoma and Ewing sarcoma xenografts were treated with vehicle or SMSMs. Tumor tissues from subcutaneous xenografts were broken into a powder using a BioPulverizer (Biospec Products, Inc.). After SMSM treatment, mRNA was isolated from the xenografts and was analyzed by qRT-PCR.
Tumor size was measured 2 times per week in two dimensions using a caliper. Studies were terminated when the tumor size in the vehicle treated group reached 2,000 mm^3. Each mouse was bled at 2 hrs after the last dose and at least 50 μl of plasma was collected from each mouse. All of the collected plasma samples and retainer dosing solutions for each dose level were used for bioanalytical measurements. All tumors were also collected and weighed. One necrosis-free tumor fragment of approximately 50 mg was taken from each tumor and flash-frozen for RNA isolation. […]
The effects of in vivo SMSM treatments on pre-existing subcutaneous glioblastoma, breast, pancreatic, prostate, melanoma, lymphoma and Ewing sarcoma xenografts were assessed. […]

[2] = test system: A673 xenografts; test: A673 xenograft tumor growth inhibition; format: in vivo; conditions: immunocompromised nude mice with pre-existing A673 xenografts
Description: Dose range and time course studies comparing anti-neoplastic effects of SMSM-167 and SMSM-151 against vehicle were conducted.
Female NCrNu mice were used. Age range of enrolment was 7-10 weeks. A total of 75animals were for the studies.
The A673 tumor cell line was maintained in vitro as a monolayer culture. […] The cells growing in an exponential growth phase were harvested and counted for tumor inoculation.
Each mouse were inoculated into aright flank with the single cell suspension of 95% viable tumor cells (5×10^6 cells/mouse) in serum-free RPMI 1640 Media for tumor development. Treatments were administered when mean tumor size reached approximately 75 mm^3. […]
Body weight were measured prior to tumor inoculation and prior to the treatment administration and then daily. Tumor size were measured 2-3 times per week in two dimensions using a caliper, and the volume were expressed in mm^3 using the formula: V=0.5×a×b^2 where a and b are the long and short diameters of the tumor, respectively. […]
Studies were performed to assess the effects of in vivo SMSM treatment on glioblastoma, breast, pancreatic, prostate, melanoma, lymphoma and Ewing sarcoma tumors. […] After SMSM treatment, mRNA was isolated from the xenografts and was analyzed by qRT-PCR.
Tumor size was measured 2 times per week in two dimensions using a caliper. […]

[3] = Splicing (IC50), Example 22; format: cell-based; conditions: spliced gene and cells not stated
Description: A-673 cell viability […], splicing (IC50) and brain AUC/Plasma AUC of SMSMs were determined. As shown in the tables below SMSMs had high CNS exposure.

[4] = Maximum tolerable dose study; format: in vivo; conditions: mice, 3 per group
Description: Survival of mice after administration of SMSMs after 10 or 11 days was assessed.
Tolerance of the drug treatments was determined by measuring the weight of the mice during the period of drug administration. Body weight was measured prior to tumor inoculation and prior to the treatment administration and then daily. The changes in the final weight of the mice for the SMSM treatments were determined.

[5] = test system: A673 cells; test: Dose-response cell proliferation, crystal violet assay, 72 h; format: cell-based; conditions: ratio of IC50 in NHDF cells to IC50 in A673 cells
Description: Small molecule splicing modulators were tested in a dose-response assay using A673 cells and NHDF cells.
A673 cells or NHDF cells were first plated in 96-well plastic tissue culture plates (10,000 cells per well). The cells were treated with vehicle alone (DMSO), or increasing concentrations of SMSM compounds for 72 h. Following treatment, cell proliferation was determined using a crystal violet assay. The relative cell proliferation at each concentration was determined.

Compound | tumor growth inhibition (TGI), in words [1] | tumor growth inhibition (TGI), in words [2] | IC50 [3] [nM] | Outcome ([4]; IP 1 mg/kg QDx11) | Outcome ([4]; PO 10 mg/kg BIDx11) | Outcome ([4]; PO 10 mg/kg QDx11) | Ratio NHDF/A673 IC50 [5]
CN(c1ccc(-c2ccc(-c3cn[nH]c3)cc2O)nn1)[C@@H]1C[C@H]2CCC[C@@H](C1)N2 [compound 160, 2-(6-(((1R,3s,5S)-9-azabicyclo[3.3.1]nonan-3-yl)(methyl)amino)pyridazin-3-yl)-5-(1H-pyrazol-4-yl)phenol] | led to tumor growth inhibition | led to tumor growth inhibition | < 1 | – | – | – | –
CN(c1ccc(-c2ccc(-c3cn[nH]c3)cc2O)nn1)[C@H]1C[C@]2(C)CC[C@](C)(C1)N2 [compound 151, 2-(6-(((1R,3s,5S)-1,5-dimethyl-8-azabicyclo[3.2.1]octan-3-yl)(methyl)amino)pyridazin-3-yl)-5-(1H-pyrazol-4-yl)phenol] | led to tumor growth inhibition | led to tumor growth inhibition | < 1 | All survived | All survived | All survived | >350
